The text below walks through data of patent publication US11285156B2, “Substituted piperazines as KRAS G12C inhibitors” (Amgen Inc., priority 2018, dated 2022).

In general, IC50 refers to the concentration that inhibits the measured activity by half.

Assay [1] deals with GDP-bound KRAS protein (aa 1-169), containing both G12C and C118A amino acid substitutions (Homo sapiens (Human), UniProt P01116, C118A/G12C). The experiment in a line: Coupled nucleotide exchange assay (SOS-mediated nucleotide exchange, AlphaScreen). In kind it is biochemical. Conditions: 5 min compound pre-incubation; for IC50: read-out: Coupled exchange IC50 (5 min; μM). (Bead proximity is the source of the signal in Alpha formats.)

Assay [2] concerns Phosphorylation of ERK1/2 in MIA PaCa-2 cells. The assay is described as follows: Phospho-ERK1/2 MSD assay in MIA PaCa-2 cells. In kind it is cell-based. Conditions: read-out: p-ERK IC50 (2 h, MiaPaCa-2; μM), 2 h compound treatment, MIA PaCa-2 cells, EGF stimulated. The method, boiled down: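 Phospho-ERK1/2 measured by MSD electrochemiluminescence kit in RIPA lysates of MIA PaCa-2 cells. Cells were treated with compound titrations for 2 or 4 h at 37 °C, 5% CO2, followed by a 10 min pulse of 10 ng/mL EGF.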

For assay [3], the system named is Phosphorylation of ERK1/2 in A549 cells. The experiment in a line: Phospho-ERK1/2 MSD assay in A549 cells. Conditions: read-out: p-ERK IC50 (2 h, A549; μM), 2 h compound treatment, A549 cells, EGF stimulated. In kind it is cell-based. An outline of the steps:
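Phospho-ERK1/2 was quantified by MSD immunoassay in RIPA lysates of MIA PaCa-2 or A549 cells. Before lysis, cells received 10 ng/mL EGF for 10 min after 2 or 4 h exposure at 37° C. to a compound concentration series.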

Structures are written as SMILES. Where two headings read alike, the source gives them in different places.

GDP-bound KRAS protein (aa 1-169), containing both G12C and C118A amino acid substitutions, sequence (P01116 other isoform, or with tags, fused parts or gaps G12C/C118A): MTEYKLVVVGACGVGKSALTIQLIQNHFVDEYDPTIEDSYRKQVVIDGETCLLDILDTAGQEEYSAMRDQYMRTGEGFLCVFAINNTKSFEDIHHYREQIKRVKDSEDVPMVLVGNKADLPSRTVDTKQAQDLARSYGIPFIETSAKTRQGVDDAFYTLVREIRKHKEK

As for `C=CC(=O)N1C[C@H](C)N(c2nc(=O)n(-c3c(C)cc(CN(C)C)cc3C(C)C)c3nc(-c4c(O)cccc4F)c(F)cc23)C[C@H]1C` (single isomer, unassigned) [Example 80-21-2], the IC50 in assay [1] is 0.061 µM; in assay [2], 0.072 µM; in assay [3], over 7.5 µM.

In the case of `C=CC(=O)N1C[C@H](C)N(c2nc(=O)n(-c3c(C(C)C)cnn3C(C)C)c3nc(-c4ccccc4F)c(Cl)cc23)C[C@H]1C` (single isomer, unassigned) [Example 100-1-1], the IC50 in assay [1] is 0.061 µM; in assay [2] it was 0.091 µM; in assay [3], over 7.5 µM.

Take `C=CC(=O)N1C[C@H](C)N(c2nc(=O)n(-c3c(C(C)C)cnn3C(C)C)c3nc(-c4ccccc4F)c(Cl)cc23)C[C@H]1C` (single isomer, unassigned) [Example 100-1-2]: the IC50 in assay [1] was 0.062 µM; in assay [2] it was 0.098 µM; in assay [3] it was over 7.5 µM.

With `C=CC(=O)N1C[C@H](C)N(c2nc(=O)n(-c3c(Cl)ncnc3C(C)C)c3nc(-c4ccccc4F)c(Cl)cc23)C[C@H]1C` (single isomer, unassigned) [Example 102-5-1], the concentration for half-maximal inhibition (IC50) in assay [1] was 0.031 µM; in assay [2] it was 0.058 µM; in assay [3] it was over 7.5 µM.

For the compound `C=CC(=O)N1C[C@H](C)N(c2nc(=O)n(-c3c(Cl)ncnc3C(C)C)c3nc(-c4ccccc4F)c(Cl)cc23)C[C@H]1C` (single isomer, unassigned) [Example 102-5-2], the IC50 in assay [1] is 0.173 µM; in assay [2], 0.873 µM; in assay [3] it was over 7.5 µM.

As to `C=CC(=O)N1C[C@H](C)N(c2nc(=O)n(-c3c(Cl)ncnc3C(C)C)c3nc(-c4ccccc4C)c(Cl)cc23)C[C@H]1C` (single isomer, unassigned) [Example 102-6-1], the figures for the IC50 in assay [1], in assay [2] and in assay [3] were 0.094 µM, 0.056 µM and over 7.5 µM, respectively.

For `C=CC(=O)N1C[C@H](C)N(c2nc(=O)n(-c3c(C)cc(P(C)(C)=O)cc3C(C)C)c3nc(-c4ccccc4F)c(Cl)cc23)C[C@H]1C` (single isomer, unassigned) [Example 102-7-1], the IC50 is 0.181 µM in assay [1]; 1.06 µM in assay [2] (Homo sapiens, MIA PaCa-2, 2 h); over 7.5 µM in assay [3] (Homo sapiens, A549, 2 h).

For `C=CC(=O)N1C[C@H](C)N(c2nc(=O)n(-c3c(N(C)C)ccnc3C(C)C)c3nc(-c4ccccc4C(C)C)c(Cl)cc23)C[C@H]1C` (single isomer, unassigned) [Example 103-1-2], the values for the IC50 in assay [1], in assay [2] and in assay [3] were 0.053 µM, 0.039 µM and over 7.5 µM, respectively.

With `C=CC(=O)N1C[C@H](C)N(c2nc(=O)n(-c3c(N(CC)CC)ccnc3C(C)C)c3nc(-c4ccccc4C(C)C)c(Cl)cc23)C[C@H]1C` (single isomer, unassigned) [Example 103-6-2], the IC50 in assay [1] stood at 0.112 µM; in assay [2], 0.26 µM; in assay [3], 5.19 µM.

`C=CC(=O)N1C[C@H](C)N(c2nc(=O)n(-c3c(N(C)C)ccnc3C(C)C)c3nc(-c4ccccc4C)c(Cl)cc23)C[C@H]1C` (single isomer, unassigned) [Example 103-7-2]: the IC50 in assay [1] was 0.088 µM; in assay [2], 0.052 µM; in assay [3] it was over 7.5 µM.

As for `C=CC(=O)N1C[C@H](C)N(c2nc(=O)n(-c3c(C)ccnc3C(C)C)c3nc(-c4ccccc4F)c(Cl)nc23)C[C@H]1C` (single isomer, unassigned) [Example 106-6-2], the IC50 in assay [1] was 0.059 µM; in assay [2] (Homo sapiens, MIA PaCa-2, 2 h) it was 0.301 µM; in assay [3] (Homo sapiens, A549, 2 h) it was over 7.5 µM.

Regarding `C=CC(=O)N1C[C@H](C)N(c2nc(=O)n(-c3c(C(C)C)ncnc3C3CC3)c3nc(-c4ccccc4F)c(Cl)cc23)C[C@H]1C` (single isomer, unassigned) [Example 108-1-1], the IC50 in assay [1] was 0.006 µM; in assay [2], 0.021 µM; in assay [3], over 7.5 µM.

As to `C=CC(=O)N1C[C@H](C)N(c2nc(=O)n(-c3c(C(C)C)ncnc3C3CC3)c3nc(-c4ccccc4F)c(Cl)cc23)C[C@H]1C` (single isomer, unassigned) [Example 108-1-2], the IC50 in assay [1] is 0.008 µM; in assay [2], 0.054 µM; in assay [3], over 7.5 µM.

Regarding `C=CC(=O)N1C[C@H](C)N(c2nc(=O)n(-c3c(C(C)C)ncnc3C3CC3)c3nc(-c4ccccc4C)c(Cl)cc23)C[C@H]1C` (single isomer, unassigned) [Example 108-2-1], the IC50 in assay [1] is 0.035 µM; in assay [2], 0.046 µM; in assay [3], over 7.5 µM.

Take `C=CC(=O)N1C[C@H](C)N(c2nc(=O)n(-c3c(C(C)C)ncnc3C3CC3)c3nc(-c4ccccc4C)c(Cl)cc23)C[C@H]1C` (single isomer, unassigned) [Example 108-2-2]: the IC50 in assay [1] is 0.181 µM; in assay [2] it was 0.148 µM; in assay [3], over 7.5 µM.

With `C=CC(=O)N1C[C@H](C)N(c2nc(=O)n(-c3c(CC)ncnc3C(C)C)c3nc(-c4ccccc4F)c(Cl)cc23)C[C@H]1C` (single isomer, unassigned) [Example 109-1-1], the IC50 in assay [1] is 0.06 µM; in assay [2], 0.045 µM; in assay [3], over 7.5 µM.

As for `C=CC(=O)N1C[C@H](C)N(c2nc(=O)n(-c3c(CC)ncnc3C(C)C)c3nc(-c4ccccc4F)c(Cl)cc23)C[C@H]1C` (single isomer, unassigned) [Example 109-1-2], the figures for the IC50 in assay [1], in assay [2] and in assay [3] were 0.209 µM, 0.08 µM and over 7.5 µM, respectively.

As for `C=CC(=O)N1C[C@H](C)N(c2nc(=O)n(-c3c(CC)ncnc3C(C)C)c3nc(-c4ccccc4C)c(Cl)cc23)C[C@H]1C` (single isomer, unassigned) [Example 109-2-1], the IC50 in assay [1] was 0.059 µM; in assay [2], 0.065 µM; in assay [3], over 7.5 µM.

For the compound `C=CC(=O)N1C[C@H](C)N(c2nc(=O)n(-c3c(C)cc(CN(C)C)cc3C(C)C)c3nc(-c4ccccc4F)c(Cl)cc23)C[C@H]1C` (single isomer, unassigned) [Example 121-3], the “Coupled exchange IC50 (5 min; μM)” value in assay [1] amounted to 0.066 µM. For the same compound, the IC50 in assay [2] (Homo sapiens, MIA PaCa-2, 2 h) was 0.027 µM; in assay [3] (Homo sapiens, A549, 2 h) it was over 7.5 µM.

`C=CC(=O)N1C[C@H](C)N(c2nc(=O)n(-c3c(N(C)C)ccnc3C(C)C)c3nc(-c4c(F)cccc4NC(=O)CC)c(Cl)cc23)C[C@H]1C` (single isomer, unassigned) [Example 122-2-2]: the half-maximal inhibitory concentration (IC50) is 0.088 µM in assay [1]; 0.63 µM in assay [2]; over 7.5 µM in assay [3] (Homo sapiens, A549, 2 h).

As for `C=CC(=O)N1C[C@H](C)N(c2nc(=O)n(-c3c(N(C)C)ccnc3C(C)C)c3nc(-c4c(F)cccc4NC(=O)C4CC4)c(Cl)cc23)C[C@H]1C` (single isomer, unassigned) [Example 122-3-2], the IC50 is 0.179 µM in assay [1]; 0.145 µM in assay [2] (Homo sapiens, MIA PaCa-2, 2 h); over 7.5 µM in assay [3] (Homo sapiens, A549, 2 h).

On to `C=CC(=O)N1[C@H](C)CN(c2nc(=O)n(-c3c(C)cc(N)nc3C(C)C)c3nc(-c4c(O)cccc4F)c(F)cc23)C[C@@H]1C` (single isomer, unassigned) [Example 123-2], for which the IC50 was 0.4 µM in assay [1]; 0.26 µM in assay [2] (Homo sapiens, MIA PaCa-2, 2 h); over 7.5 µM in assay [3] (Homo sapiens, A549, 2 h).

With `C=CC(=O)N1[C@H](C)CN(c2nc(=O)n(-c3c(C)cc(N)nc3C(C)C)c3nc(-c4c(N)cccc4F)c(F)cc23)C[C@@H]1C` (single isomer, unassigned) [Example 123-6], the IC50 in assay [1] was 0.231 µM; in assay [2], 0.133 µM; in assay [3] (Homo sapiens, A549, 2 h) it was over 7.5 µM.

As to `C=CC(=O)N1C[C@H](C)N(c2nc(=O)n(-c3c(C(C)C)ccnc3C(C)C)c3nc(-c4ccccc4C)c(Cl)cc23)C[C@H]1C` (single isomer, unassigned) [Example 124-2], the concentration for half-maximal inhibition (IC50) is 0.033 µM in assay [1]; 0.032 µM in assay [2] (Homo sapiens, MIA PaCa-2, 2 h); over 7.5 µM in assay [3] (Homo sapiens, A549, 2 h).

Turning to `C=CC(=O)N1C[C@H](C)N(c2nc(=O)n(-c3c(C(C)C)ccnc3C(C)C)c3nc(-c4ccccc4C(F)(F)F)c(Cl)cc23)C[C@H]1C` (single isomer, unassigned) [Example 124-3], the half-inhibitory concentration (IC50) is 0.028 µM in assay [1]; 0.032 µM in assay [2] (Homo sapiens, MIA PaCa-2, 2 h); over 7.5 µM in assay [3] (Homo sapiens, A549, 2 h).

`C=CC(=O)N1C[C@H](C)N(c2nc(=O)n(-c3c(C(C)C)ccnc3C(C)C)c3nc(-c4c(O)cccc4F)c(Cl)cc23)C[C@H]1C` (single isomer, unassigned) [Example 124-4]: the IC50 in assay [1] was 0.022 µM; in assay [2] (Homo sapiens, MIA PaCa-2, 2 h) it was 0.016 µM; in assay [3] (Homo sapiens, A549, 2 h), over 7.5 µM.

Consider `C=CC(=O)N1C[C@H](C)N(c2nc(=O)n(-c3c(C4CC4)ccnc3C(C)C)c3nc(-c4ccccc4C)c(Cl)cc23)C[C@H]1C` (single isomer, unassigned) [Example 124-9], for which the “Coupled exchange IC50 (5 min; μM)” value in assay [1] turned out to be 0.122 µM. In addition, the IC50 was 0.169 µM in assay [2] and over 7.5 µM in assay [3] (Homo sapiens, A549, 2 h).

Regarding `C=CC(=O)N1CCN(c2nc(=O)n(-c3c(C(C)C)ccnc3C(C)C)c3nc(-c4ccccc4C)c(Cl)cc23)[C@@H](C)C1` (single isomer, unassigned) [Example 124-10], the IC50 in assay [1] is 0.046 µM; in assay [2] (Homo sapiens, MIA PaCa-2, 2 h), 0.049 µM; in assay [3] (Homo sapiens, A549, 2 h), over 7.5 µM.

As to `C=CC(=O)N1C[C@H](C)N(c2nc(=O)n(-c3c(C(C)C)ccnc3C(C)C)c3nc(-c4ccccc4C(C)C)c(Cl)cc23)C[C@H]1C` (single isomer, unassigned) [Example 125-8], the IC50 in assay [1] is 0.113 µM; in assay [2], 0.137 µM; in assay [3] it was 5.05 µM.
